The target in this test is T1, BCL6 (Homo sapiens, UniProt P41182).
T1 construct: endogenous in cells; host or cells: T47D breast cancer epithelial cells
Kind of test: Immunofluorescence protocol for high content imaging of BCL6 (degradation) in T47D cells, 3 days compound treatment. It counts as cell-based. The conditions noted are these: T47D cells, 3 days compound treatment; for DC50: read-out: Mean DC50 (nM)* category; for Dmax: read-out: Mean Dmax (%)** category. The essentials:
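T47D cells in RPMI1640-10% FBS were treated with an 11-point 3-fold dilution series (final top 0.1 or 1 μM) for 3 days at 37° C. After PFA fixation and Triton permeabilization, cells were immunostained with rabbit anti-BCL6 (1:300, overnight 4° C), Alexa-488 secondary, CellMask-647 and Hoechst, then imaged at 10×, 4 fields/well.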

As usually defined, the DC50 is the concentration at which degradation of the target reaches its halfway point. The term Dmax denotes the largest share of the target that was removed. Consider `CNC(=O)COc1cc2cc(Nc3nc(N4CCC(O[C@H]5C[C@H](N6C[C@@H](C)N(c7ccc8c(c7)CN(C7CCC(=O)NC7=O)C8=O)[C@@H](C)C6)C5)CC4)ncc3Cl)ccc2n(C(C)C)c1=O` (stereo partly drawn) [Compound 174, 2-({6-[(5-chloro-2-{4-[(1r,3r)-3-[(3R,5S)-4-[2-(2,6-dioxopiperidin-3-yl)-1-oxo-2,3-dihydro-1H-isoindol-5-yl]-3,5-dimethylpiperazin-1-yl]cyclobutoxy]piperidin-1-yl}pyrimidin-4-yl)amino]-2-oxo-1-(propan-2-yl)-1,2-dihydroquinolin-3-yl}oxy)-N-methylacetamide], for which the DC50 was less than 10 nM and the Dmax was no less than 70%.

In the case of `CNC(=O)COc1cc2cc(Nc3nc(N4CCC(O[C@H]5C[C@H](N6CCN(c7ccc8c(c7F)CN(C7CCC(=O)NC7=O)C8=O)[C@H](C)C6)C5)CC4)ncc3Cl)ccc2n(C(C)C)c1=O` (stereo partly shown) [Compound 175], the DC50 is less than 10 nM and the Dmax was no less than 70%.

For the compound `CNC(=O)COc1cc2cc(Nc3nc(N4CCC(O[C@H]5C[C@H](N6CCN(c7ccc8c(c7C)C(=O)N(C7CCC(=O)NC7=O)C8=O)CC6)C5)CC4)ncc3Cl)ccc2n(C(C)C)c1=O` (stereo partly shown) [Compound 177, 2-({6-[(5-chloro-2-{4-[(1r,3r)-3-{4-[2-(2,6-dioxopiperidin-3-yl)-4-methyl-1,3-dioxoisoindol-5-yl]piperazin-1-yl}cyclobutoxy]piperidin-1-yl}pyrimidin-4-yl)amino]-1-isopropyl-2-oxoquinolin-3-yl}oxy)-N-methylacetamide], the DC50 is less than 10 nM and the Dmax was no less than 70%.

As to `CNC(=O)COc1cc2cc(Nc3nc(N4CCC(O[C@H]5C[C@H](N6CCN(c7ccc8c(c7F)CN(C7CCC(=O)NC7=O)C8=O)C[C@@H]6C)C5)CC4)ncc3Cl)ccc2n(C(C)C)c1=O` (stereo partly shown) [Compound 178], the DC50 is less than 10 nM and the Dmax is no less than 70%.

As to `CNC(=O)COc1cc2cc(Nc3nc(N4CCC(O[C@H]5C[C@H](N6CCN(c7ccc8c(c7Cl)CN(C7CCC(=O)NC7=O)C8=O)CC6)C5)CC4)ncc3Cl)ccc2n(C(C)C)c1=O` (stereo partly shown) [Compound 181, 2-({6-[(5-chloro-2-{4-[(1r,3r)-3-{4-[4-chloro-2-(2,6-dioxopiperidin-3-yl)-1-oxo-2,3-dihydro-1H-isoindol-5-yl]piperazin-1-yl}cyclobutoxy]piperidin-1-yl}pyrimidin-4-yl)amino]-2-oxo-1-(propan-2-yl)-1,2-dihydroquinolin-3-yl}oxy)-N-methylacetamide], the DC50 was less than 10 nM and the Dmax was no less than 70%.

As to `CNC(=O)COc1cc2cc(Nc3nc(N4CCC(O[C@H]5C[C@H](N6CCN(c7ccc8c(c7F)CN(C7CCC(=O)NC7=O)C8=O)C[C@H]6C)C5)CC4)ncc3Cl)ccc2n(C(C)C)c1=O` (stereo partly shown) [Compound 182], the DC50 is less than 10 nM and the Dmax is no less than 70%.

Regarding `CNC(=O)COc1cc2cc(Nc3nc(N4CCC(OC5CN([C@H]6CC[C@H](c7ccc8c(c7F)CN(C7CCC(=O)NC7=O)C8=O)CC6)C5)CC4)ncc3Cl)ccc2n(C(C)C)c1=O` (stereo partly shown) [Compound 183, 2-{[6-({5-chloro-2-[4-({1-[(1r,4r)-4-[2-(2,6-dioxopiperidin-3-yl)-4-fluoro-1-oxo-2,3-dihydro-1H-isoindol-5-yl]cyclohexyl]azetidin-3-yl}oxy)piperidin-1-yl]pyrimidin-4-yl}amino)-2-oxo-1-(propan-2-yl)-1,2-dihydroquinolin-3-yl]oxy}-N-methylacetamide], the DC50 was less than 10 nM and the Dmax was no less than 70%.

As for `CNC(=O)COc1cc2cc(Nc3nc(N4CCC(OC5CN([C@H]6CC[C@@H](c7ccc8c(c7F)CN(C7CCC(=O)NC7=O)C8=O)CC6)C5)CC4)ncc3Cl)ccc2n(C(C)C)c1=O` (stereo partly shown) [Compound 184], the DC50 is less than 10 nM and the Dmax is no less than 70%.

For the compound `CNC(=O)COc1cc2cc(Nc3nc(N4CCC(OC5CN([C@H]6CC[C@H](c7ccc8c(c7Cl)CN(C7CCC(=O)NC7=O)C8=O)CC6)C5)CC4)ncc3Cl)ccc2n(C(C)C)c1=O` (stereo partly shown) [Compound 185], the DC50 was less than 10 nM and the Dmax lay within 50 to 70%.

Turning to `CNC(=O)COc1cc2cc(Nc3nc(N4CCC(OC5CN([C@H]6CC[C@@H](c7ccc8c(c7Cl)CN(C7CCC(=O)NC7=O)C8=O)CC6)C5)CC4)ncc3Cl)ccc2n(C(C)C)c1=O` (stereo partly shown) [Compound 186, 2-{[6-({5-chloro-2-[4-({1-[(1s,4s)-4-[4-chloro-2-(2,6-dioxopiperidin-3-yl)-1-oxo-2,3-dihydro-1H-isoindol-5-yl]cyclohexyl]azetidin-3-yl}oxy)piperidin-1-yl]pyrimidin-4-yl}amino)-2-oxo-1-(propan-2-yl)-1,2-dihydroquinolin-3-yl]oxy}-N-methylacetamide], the DC50 is less than 10 nM and the maximal degradation (Dmax) is less than 50%.

Regarding `CNC(=O)COc1cc2cc(Nc3nc(N4CCC(O[C@H]5C[C@H](N6CCC(c7ccc8c(c7F)CN(C7CCC(=O)NC7=O)C8=O)C(C)(C)C6)C5)CC4)ncc3Cl)ccc2n(C(C)C)c1=O` (stereo partly shown) [Compound 187, 2-({6-[(5-chloro-2-{4-[(1r,3r)-3-{4-[2-(2,6-dioxopiperidin-3-yl)-4-fluoro-1-oxo-3H-isoindol-5-yl]-3,3-dimethylpiperidin-1-yl}cyclobutoxy]piperidin-1-yl}pyrimidin-4-yl)amino]-1-isopropyl-2-oxoquinolin-3-yl}oxy)-N-methylacetamide], the DC50 was less than 10 nM and the Dmax was no less than 70%.

Consider `CNC(=O)COc1cc2cc(Nc3nc(N4CCC(O[C@H]5C[C@H](N6CCC(c7cc(F)c8c(c7F)CN([C@H]7CCC(=O)NC7=O)C8=O)CC6)C5)CC4)ncc3Cl)ccc2n(C(C)C)c1=O` [Compound 188, 2-({6-[(5-chloro-2-{4-[(1r,3r)-3-(4-{2-[(3S)-2,6-dioxopiperidin-3-yl]-4,7-difluoro-1-oxo-2,3-dihydro-1H-isoindol-5-yl}piperidin-1-yl)cyclobutoxy]piperidin-1-yl}pyrimidin-4-yl)amino]-2-oxo-1-(propan-2-yl)-1,2-dihydroquinolin-3-yl}oxy)-N-methylacetamide], for which the DC50 is less than 10 nM and the Dmax is no less than 70%.

With `CNC(=O)COc1cc2cc(Nc3nc(N4CCC(O[C@H]5C[C@H](N6CCN(c7ccc8c(n7)CN(C7CCC(=O)NC7=O)C8=O)CC6)C5)CC4)ncc3Cl)ccc2n(C(C)C)c1=O` (stereo partly shown) [Compound 189, 2-((6-((5-chloro-2-(4-((1r,3r)-3-(4-(6-(2,6-dioxopiperidin-3-yl)-5-oxo-6,7-dihydro-5H-pyrrolo[3,4-b]pyridin-2-yl)piperazin-1-yl)cyclobutoxy)piperidin-1-yl)pyrimidin-4-yl)amino)-1-isopropyl-2-oxo-1,2-dihydroquinolin-3-yl)oxy)-N-methylacetamide], the half-maximal degradation concentration (DC50) was less than 10 nM and the Dmax is 50 to 70%.

For the compound `CNC(=O)COc1cc2cc(Nc3nc(N4CCC(O[C@H]5C[C@H](N6CCC(c7ccc8c(c7F)CN(C7CCC(=O)NC7=O)C8=O)CC6)C5)CC4)ncc3Cl)ccc2n(C2CCC2)c1=O` (stereo partly shown) [Compound 190, 2-({6-[(5-chloro-2-{4-[(1r,3r)-3-{4-[2-(2,6-dioxopiperidin-3-yl)-4-fluoro-1-oxo-2,3-dihydro-1H-isoindol-5-yl]piperidin-1-yl}cyclobutoxy]piperidin-1-yl}pyrimidin-4-yl)amino]-1-cyclobutyl-2-oxo-1,2-dihydroquinolin-3-yl}oxy)-N-methylacetamide], the DC50 was less than 10 nM and the Dmax was no less than 70%.

The values are drawn from patent US11986532B2 (Arvinas Operations, Inc., priority 2021, dated 2024).
